Laboratory results from article PMC5105127, “16-nor Limonoids from Harrisonia perforata as promising selective 11β-HSD1 inhibitors” (Scientific Reports, 2016).
Where two headings read alike, the source gives them in different places.

Assays:
Format in all cases: biochemical
murine 11β-HSD1 = molecular target: T1, murine 11β-HSD1 (Mus musculus, UniProt P50172); experiment: scintillation proximity assay (SPA), murine 11β-HSD1
T1 construct: The full-length cDNAs of human or murine11β-HSD1 and 11β-HSD2 were isolated from the cDNA libraries; made in house; host or cells: HEK-293, stably transfected with a pcDNA3 plasmid; microsomal fraction
T1 sequence (P50172 whole entry): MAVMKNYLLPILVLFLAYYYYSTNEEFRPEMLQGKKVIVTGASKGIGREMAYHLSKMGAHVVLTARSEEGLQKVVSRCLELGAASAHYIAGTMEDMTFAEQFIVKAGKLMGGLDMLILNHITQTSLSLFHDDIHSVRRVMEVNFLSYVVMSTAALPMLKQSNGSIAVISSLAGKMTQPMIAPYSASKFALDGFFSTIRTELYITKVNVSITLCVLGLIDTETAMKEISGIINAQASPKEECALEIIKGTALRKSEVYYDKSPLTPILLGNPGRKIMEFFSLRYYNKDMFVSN
Protocol: The inhibitory activity of compounds 1–3 on murine and human 11β-HSD1 was evaluated using the scintillation proximity assay (SPA)[25]. […] We further used the intact cell transfected with human HSD11B1 and HSD11B2 to screen their bioactivities. […] The inhibitory activities of the compounds on human or mouse 11β-HSD1 and 11β-HSD2 were determined using the scintillation proximity assay (SPA). The full-length cDNAs of human or murine11β-HSD1 and 11β-HSD2 were isolated from the cDNA libraries provided by NIH Mammalian Gene Collection. The cDNAs were cloned into pcDNA3 expression vectors. HEK-293 cells were transfected with the pcDNA3-derived expression plasmid and selected by cultivation in the presence of 700 μg/ml of G418. The microsomal fraction overexpressing 11β-HSD1 or 11β-HSD2 was prepared from the HEK-293 cells, which were stably transfected with 11β-HSD1 or 11β-HSD2. The fraction was then used as the enzyme source for SPA. Microsomes containing human or mouse 11β-HSD1 were incubated with NADPH and [^3H] cortisone. The product, [^3H] cortisol, was specifically captured by a monoclonal antibody coupled to protein A-coated SPA beads. The 11β-HSD2 screening was performed by incubating 11β-HSD2 microsomes with [^3H] cortisol and NAD + and monitoring substrate disappearance. All tests were done twice with glycyrrhizinic acid as a positive control.

human 11β-HSD2 = experiment: scintillation proximity assay (SPA), human 11β-HSD2; settings: human 11β-HSD2 vs human 11β-HSD1
Protocol: (§1) The inhibitory activity of compounds 1–3 on murine and human 11β-HSD1 was evaluated using the scintillation proximity assay (SPA)[25]. […] We further used the intact cell transfected with human HSD11B1 and HSD11B2 to screen their bioactivities.
(§2) The inhibitory activities of the compounds on human or mouse 11β-HSD1 and 11β-HSD2 were determined using the scintillation proximity assay (SPA). The full-length cDNAs of human or murine11β-HSD1 and 11β-HSD2 were isolated from the cDNA libraries provided by NIH Mammalian Gene Collection. The cDNAs were cloned into pcDNA3 expression vectors. HEK-293 cells were transfected with the pcDNA3-derived expression plasmid and selected by cultivation in the presence of 700 μg/ml of G418. The microsomal fraction overexpressing 11β-HSD1 or 11β-HSD2 was prepared from the HEK-293 cells, which were stably transfected with 11β-HSD1 or 11β-HSD2. The fraction was then used as the enzyme source for SPA. Microsomes containing human or mouse 11β-HSD1 were incubated with NADPH and [^3H] cortisone. The product, [^3H] cortisol, was specifically captured by a monoclonal antibody coupled to protein A-coated SPA beads. The 11β-HSD2 screening was performed by incubating 11β-HSD2 microsomes with [^3H] cortisol and NAD + and monitoring substrate disappearance. […] IC50 (X + SD, n = 2) values were calculated by using Prism Version 4 (GraphPad Software, SanDiego, CA).

human 11β-HSD1 = molecular target: T2, human 11β-HSD1 (Homo sapiens, UniProt P28845); experiment: scintillation proximity assay (SPA), human 11β-HSD1
T2 construct: The full-length cDNAs of human or murine11β-HSD1 and 11β-HSD2 were isolated from the cDNA libraries; made in house; host or cells: HEK-293, stably transfected with a pcDNA3 plasmid; microsomal fraction
T2 sequence (P28845 whole entry): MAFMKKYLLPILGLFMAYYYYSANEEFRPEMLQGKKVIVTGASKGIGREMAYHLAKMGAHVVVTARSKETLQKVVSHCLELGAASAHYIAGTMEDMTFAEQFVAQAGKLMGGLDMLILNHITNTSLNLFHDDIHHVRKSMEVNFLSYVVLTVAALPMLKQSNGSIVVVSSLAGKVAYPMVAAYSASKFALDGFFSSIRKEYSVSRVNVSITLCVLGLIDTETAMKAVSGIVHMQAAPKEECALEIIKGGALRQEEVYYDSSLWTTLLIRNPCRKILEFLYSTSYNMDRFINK
Protocol: as §1, §2

murine 11β-HSD2 = molecular target: T3, murine 11β-HSD2 (Mus musculus, UniProt P51661); experiment: scintillation proximity assay (SPA), murine 11β-HSD2
T3 construct: The full-length cDNAs of human or murine11β-HSD1 and 11β-HSD2 were isolated from the cDNA libraries; made in house; host or cells: HEK-293, stably transfected with a pcDNA3 plasmid; microsomal fraction
T3 sequence (P51661 1-386): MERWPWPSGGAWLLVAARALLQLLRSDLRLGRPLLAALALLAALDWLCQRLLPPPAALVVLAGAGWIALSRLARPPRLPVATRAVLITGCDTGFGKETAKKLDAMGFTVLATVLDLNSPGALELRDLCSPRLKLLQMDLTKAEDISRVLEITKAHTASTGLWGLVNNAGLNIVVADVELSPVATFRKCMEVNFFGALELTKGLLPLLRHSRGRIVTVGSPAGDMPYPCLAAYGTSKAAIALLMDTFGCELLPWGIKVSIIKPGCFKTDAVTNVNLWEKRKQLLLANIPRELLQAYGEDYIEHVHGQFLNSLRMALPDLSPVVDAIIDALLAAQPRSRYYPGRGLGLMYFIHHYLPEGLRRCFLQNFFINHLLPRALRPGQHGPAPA
Protocol: as §1, §2

## CC1(C)[C@@H](O[C@H]2O[C@H](C(=O)O)[C@@H](O)[C@H](O)[C@H]2O[C@@H]2O[C@H](C(=O)O)[C@@H](O)[C@H](O)[C@H]2O)CC[C@]2(C)[C@H]3C(=O)C=C4[C@@H]5C[C@@](C)(C(=O)O)CC[C@]5(C)CC[C@@]4(C)[C@]3(C)CC[C@@H]12 [Glycyrrhizic acid, reference compound]
Murine 11β-HSD1; 1 nM, read-out: Inhibition rate on murine 11β-HSD1
  inhibition at 0.001 µM: 21.2%
Murine 11β-HSD1; 10 nM, read-out: Inhibition rate on murine 11β-HSD1
  inhibition at 0.01 µM: 51.9%
Murine 11β-HSD1; 100 nM, read-out: Inhibition rate on murine 11β-HSD1
  inhibition at 0.1 µM: 86.8%

## CC1=CC23C(=O)OC(C)(C)C1CC2(O)CC1=C2C(=O)OC(c4ccoc4)C2(C)CCC13 (centres unmarked) [Compound 3, Harperforin G]
Human 11β-HSD2
  SI (selectivity against human 11β-HSD2): > 174
Human 11β-HSD1; SPA, text: intact cell transfected with human HSD11B1, whole cell assay, read-out: IC50, inhibition of human 11β-HSD1
  IC50: 580 nM

## CC1(C)OC(=O)C=C[C@]2(C)O[C@@]3(CC4=C5C(=O)O[C@@H](c6ccoc6)[C@]5(C)CC[C@H]4O3)C[C@H]12 [Compound 1, Harperspinoid A]
Human 11β-HSD1; in words
  inhibitory activity against human 11β-HSD1 enzyme: low inhibitory activity
Murine 11β-HSD2; at 1 mM
  inhibition of murine 11β-HSD2 activity: did not inhibit the enzyme at all
Murine 11β-HSD2; murine 11β-HSD2 vs murine 11β-HSD1
  SI (selectivity against murine 11β-HSD2): > 1661
Murine 11β-HSD1; 0.1 μM, read-out: Inhibition rate on murine 11β-HSD1
  inhibition at 0.1 µM: 22.8%
Murine 11β-HSD1; 0.3 μM, read-out: Inhibition rate on murine 11β-HSD1
  inhibition at 0.3 µM: 35.1%
Murine 11β-HSD1; 1 μM, read-out: Inhibition rate on murine 11β-HSD1
  inhibition at 1 µM: 55.8%
Murine 11β-HSD1; 3 μM, read-out: Inhibition rate on murine 11β-HSD1
  inhibition at 3 µM: 79.4%
Murine 11β-HSD1; 10 μM, read-out: Inhibition rate on murine 11β-HSD1
  inhibition at 10 µM: 90.5%
Murine 11β-HSD1; SPA, text: intact CHOP cells transfected with murine HSD11B1, read-out: IC50, inhibition of murine 11β-HSD1
  IC50: 600 nM
